{"source": "patent US5215744A", "about": "“Methods for the treatment of tumors” (Boehringer Ingelheim GmbH, priority 1987, dated 1993)", "key": {"[1]": {"test_system": "chinese hamster ovary cells", "settings": "in vitro and in vivo; cited from earlier work"}, "PLC/PRF/5 cells": {"test_system": "PLC/PRF/5 cells", "assay": "Microscopic study of morphology", "type": "cell-based, human", "settings": "combination treatment, dipyridamole 0.1 μM and HuIFN-β 10 units/ml (FIG. 7)", "excerpt": "(§1) Cells seeded in test dishes were observed and photographed using OLYMPUS IMT-2 ([…] amplification)."}, "MM-1CB": {"test_system": "MM-1CB", "assay": "Microscopic study of morphology", "type": "cell-based, human", "settings": "dipyridamole 0.1 μM with HuIFN-β 10 units/ml, 6 days (FIG. 2)", "excerpt": "as §1"}, "KT cells": {"test_system": "KT cells", "assay": "Microscopic study of morphology", "type": "cell-based, human", "settings": "combination treatment, dipyridamole 0.1 μM and HuIFN-α 10 units/ml (FIG. 6)", "excerpt": "as §1"}, "[2]": {"test_system": "activity of N-phosphoracetyl-L-aspartate (PALA)", "settings": "in vitro and in vivo; cited from earlier work"}, "[3]": {"test_system": "salvage pathway of DNA synthesis", "settings": "cited from earlier work"}, "RSa cells": {"test_system": "RSa cells", "assay": "DNA synthetic activity test ([^3 H]dTHD uptake into acid insoluble materials)", "type": "cell-based, human", "settings": "for activity at 0.1 µM: Homo sapiens, 24 h, RSa cells, read-out: DNA synthesis (% of control)", "excerpt": "Four established cell lines were used. These were MM-1CB, derived from tissues of malignant melanoma (level IV, pT4 N0 M0) in a person (Jpn. J. Dermatol. 96:947 (1986)); KT, derived from metastatic brain tumor in a person (J. Rad. Res. 26:59 (1985) and The 44th Meeting of Japanese Cancer Association, 718 (1985)); PLC/PRF/5, derived from human hepatoma (Brit. J. Cancer 34:509-515 (1976)) and a transformed cell line RSa (Virology 135:20-29 (1984), and J. Natl. Cancer Inst. 56:919-926 (1976)). [^3 H]dTHD uptake into acid insoluble materials were estimated in KT and RSa cells treated with the various agents, as described in J. Gen. Virol. […] 67:651-661 (1986)."}, "[4]": {"test_system": "ridgway osteogenic sarcoma", "settings": "with MTX; cited from earlier work"}, "[5]": {"settings": "several hours after administration; cited from earlier work"}}, "note": "“Also recorded” adds a separate entry of the source. Like-named read-outs stand apart in the source and are kept apart here."}
{"smiles": "OCCN(CCO)c1nc(N2CCCCC2)c2nc(N(CCO)CCO)nc(N3CCCCC3)c2n1", "note": "[dipyridamole, 2,6-bis(diethanolamine)-4,8-dipiperidino-pyrimido[5,4-d]pyrimidin]", "values": [{"measurement": "toxicity of methotrexate (MTX)", "setting": "[1]", "result": "enhanced the toxicity of methotrexate (MTX)"}, {"measurement": "cellular morphological conditions", "setting": "PLC/PRF/5 cells", "result": "showed impairment after the combination treatment"}, {"measurement": "cell morphology", "setting": "MM-1CB", "result": "morphologically impaired"}, {"measurement": "cellular morphological conditions", "setting": "KT cells", "result": "showed impairment after the combination treatment"}, {"measurement": "potentiation of PALA", "setting": "[2]", "result": "can potentiate the activity of N-phosphoracetyl-L-aspartate (PALA) in vitro and in vivo"}, {"measurement": "block of the salvage pathway of DNA synthesis", "setting": "[3]", "result": "effective blocker of the salvage pathway of DNA synthesis"}, {"measurement": "DNA synthesis inhibition, comparison in words", "setting": "RSa cells; 0.1 μM dipyridamole or mopidamole, alone vs combined with HuIFN-α", "result": "inhibited less than with combined treatment with HuIFN-α; also recorded: significantly more effective than mopidamole/HuIFN-α"}, {"measurement": "activity at 0.1 µM", "setting": "RSa cells; agent 0.1 μM combined with HuIFN-α 1 unit/ml", "result": 61, "unit": "%"}, {"measurement": "activity at 0.1 µM", "setting": "RSa cells; agent 0.1 μM, HuIFN-α 0 unit/ml", "result": 92, "unit": "%"}, {"measurement": "antitumor activity of MTX", "setting": "[4]", "result": "not dramatically improved"}, {"measurement": "concentration in blood", "setting": "[5]", "result": "a few micromoles"}]}
